Results reported in the Kinase Knowledgebase extract (Sharma et al. 2016).

What was measured:
[1] = biological target: PIK3CD (Human) (UniProt O00329); assay: Assessment of PIK3CD Kinase Activity
[2] = biological target: PIK3CG (human) (UniProt P48736); assay: Assessment of PIK3CG Kinase Activity
[3] = biological target: PIK3CB (Human) (UniProt P42338); assay: Assessment of PIK3CB Kinase Activity
[4] = biological target: PIK3CA (human) (UniProt P42336); assay: Assessment of PIK3CA Kinase Activity
PIK3CA (human), sequence (P42336 whole entry, looked up): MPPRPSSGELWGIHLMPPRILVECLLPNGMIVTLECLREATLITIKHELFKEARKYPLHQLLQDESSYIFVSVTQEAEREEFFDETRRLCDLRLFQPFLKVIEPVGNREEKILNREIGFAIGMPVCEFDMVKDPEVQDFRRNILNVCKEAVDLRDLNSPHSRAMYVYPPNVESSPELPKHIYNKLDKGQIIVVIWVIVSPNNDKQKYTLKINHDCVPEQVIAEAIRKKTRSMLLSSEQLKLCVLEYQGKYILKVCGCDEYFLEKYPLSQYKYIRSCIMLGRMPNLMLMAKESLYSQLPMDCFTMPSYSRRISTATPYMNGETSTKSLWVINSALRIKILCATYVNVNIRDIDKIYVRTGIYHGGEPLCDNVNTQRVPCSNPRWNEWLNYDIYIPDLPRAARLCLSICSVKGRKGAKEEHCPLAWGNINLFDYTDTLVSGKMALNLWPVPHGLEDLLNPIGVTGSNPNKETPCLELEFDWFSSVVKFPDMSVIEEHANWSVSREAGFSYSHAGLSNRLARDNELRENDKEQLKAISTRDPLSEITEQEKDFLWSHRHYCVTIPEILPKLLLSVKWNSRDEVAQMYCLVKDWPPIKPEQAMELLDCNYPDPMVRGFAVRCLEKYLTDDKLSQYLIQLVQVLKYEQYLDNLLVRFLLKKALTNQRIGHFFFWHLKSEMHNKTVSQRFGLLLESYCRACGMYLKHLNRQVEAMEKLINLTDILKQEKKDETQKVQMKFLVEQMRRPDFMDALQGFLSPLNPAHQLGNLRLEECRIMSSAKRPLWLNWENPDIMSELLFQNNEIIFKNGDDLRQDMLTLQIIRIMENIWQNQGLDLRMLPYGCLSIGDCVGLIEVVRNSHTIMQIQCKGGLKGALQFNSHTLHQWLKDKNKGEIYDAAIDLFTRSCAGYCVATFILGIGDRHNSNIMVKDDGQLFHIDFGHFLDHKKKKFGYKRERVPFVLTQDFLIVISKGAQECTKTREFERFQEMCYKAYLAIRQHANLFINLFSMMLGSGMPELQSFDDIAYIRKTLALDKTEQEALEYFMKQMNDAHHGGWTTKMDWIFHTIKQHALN

PIK3CB (Human), sequence (P42338 whole entry, looked up): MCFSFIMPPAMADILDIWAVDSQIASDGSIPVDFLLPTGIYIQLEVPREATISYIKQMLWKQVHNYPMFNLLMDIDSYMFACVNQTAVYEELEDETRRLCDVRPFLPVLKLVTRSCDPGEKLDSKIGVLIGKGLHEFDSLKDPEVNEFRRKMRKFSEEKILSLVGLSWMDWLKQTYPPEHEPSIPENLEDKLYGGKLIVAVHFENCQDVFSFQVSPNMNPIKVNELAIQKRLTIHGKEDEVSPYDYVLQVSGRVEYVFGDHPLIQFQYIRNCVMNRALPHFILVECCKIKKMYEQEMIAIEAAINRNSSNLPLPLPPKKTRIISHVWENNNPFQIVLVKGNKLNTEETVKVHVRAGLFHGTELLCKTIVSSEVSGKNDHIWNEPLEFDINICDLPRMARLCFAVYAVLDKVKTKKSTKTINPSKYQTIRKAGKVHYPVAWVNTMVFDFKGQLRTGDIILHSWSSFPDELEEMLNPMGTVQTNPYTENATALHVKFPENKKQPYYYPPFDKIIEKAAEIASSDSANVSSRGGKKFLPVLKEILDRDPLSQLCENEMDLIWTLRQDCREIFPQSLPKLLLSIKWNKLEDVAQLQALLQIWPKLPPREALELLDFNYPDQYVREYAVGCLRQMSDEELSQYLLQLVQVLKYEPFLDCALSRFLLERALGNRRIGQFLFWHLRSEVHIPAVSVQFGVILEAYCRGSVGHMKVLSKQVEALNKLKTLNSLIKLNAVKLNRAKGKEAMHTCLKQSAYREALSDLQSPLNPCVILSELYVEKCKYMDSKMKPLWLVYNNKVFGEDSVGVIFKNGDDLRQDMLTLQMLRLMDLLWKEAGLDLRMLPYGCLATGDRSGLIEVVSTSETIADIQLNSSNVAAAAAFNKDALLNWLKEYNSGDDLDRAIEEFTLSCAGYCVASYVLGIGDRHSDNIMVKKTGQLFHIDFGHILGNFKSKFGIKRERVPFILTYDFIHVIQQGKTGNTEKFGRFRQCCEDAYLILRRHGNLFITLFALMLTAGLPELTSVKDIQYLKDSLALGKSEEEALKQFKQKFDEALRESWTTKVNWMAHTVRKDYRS
PIK3CD (Human), sequence (O00329 whole entry, looked up): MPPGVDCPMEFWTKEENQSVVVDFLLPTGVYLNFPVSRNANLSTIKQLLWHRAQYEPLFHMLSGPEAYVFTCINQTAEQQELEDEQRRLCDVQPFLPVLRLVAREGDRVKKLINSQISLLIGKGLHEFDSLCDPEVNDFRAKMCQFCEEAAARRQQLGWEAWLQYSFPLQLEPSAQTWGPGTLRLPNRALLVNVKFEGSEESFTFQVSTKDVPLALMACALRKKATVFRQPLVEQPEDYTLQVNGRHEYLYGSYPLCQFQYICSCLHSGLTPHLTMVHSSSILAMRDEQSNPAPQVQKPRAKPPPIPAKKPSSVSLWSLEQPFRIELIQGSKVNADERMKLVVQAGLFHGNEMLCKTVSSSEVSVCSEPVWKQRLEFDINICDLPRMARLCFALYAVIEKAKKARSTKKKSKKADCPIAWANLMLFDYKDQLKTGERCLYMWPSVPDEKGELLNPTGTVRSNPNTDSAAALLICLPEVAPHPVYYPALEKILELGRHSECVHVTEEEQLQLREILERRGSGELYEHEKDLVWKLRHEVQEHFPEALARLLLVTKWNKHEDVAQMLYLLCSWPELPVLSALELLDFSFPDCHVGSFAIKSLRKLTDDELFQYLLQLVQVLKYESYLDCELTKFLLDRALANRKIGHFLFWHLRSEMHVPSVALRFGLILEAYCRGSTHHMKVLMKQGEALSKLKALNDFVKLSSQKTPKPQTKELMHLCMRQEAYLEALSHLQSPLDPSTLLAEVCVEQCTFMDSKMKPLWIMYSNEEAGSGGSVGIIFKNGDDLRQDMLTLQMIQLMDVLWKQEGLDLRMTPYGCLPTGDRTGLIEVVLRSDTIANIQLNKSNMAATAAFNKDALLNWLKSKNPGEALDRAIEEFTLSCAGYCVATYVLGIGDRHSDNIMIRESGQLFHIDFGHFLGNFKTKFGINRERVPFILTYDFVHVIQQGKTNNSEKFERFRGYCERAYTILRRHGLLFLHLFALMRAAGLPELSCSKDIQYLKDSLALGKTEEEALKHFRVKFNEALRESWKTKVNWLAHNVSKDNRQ
PIK3CG (human), sequence (P48736 whole entry, looked up): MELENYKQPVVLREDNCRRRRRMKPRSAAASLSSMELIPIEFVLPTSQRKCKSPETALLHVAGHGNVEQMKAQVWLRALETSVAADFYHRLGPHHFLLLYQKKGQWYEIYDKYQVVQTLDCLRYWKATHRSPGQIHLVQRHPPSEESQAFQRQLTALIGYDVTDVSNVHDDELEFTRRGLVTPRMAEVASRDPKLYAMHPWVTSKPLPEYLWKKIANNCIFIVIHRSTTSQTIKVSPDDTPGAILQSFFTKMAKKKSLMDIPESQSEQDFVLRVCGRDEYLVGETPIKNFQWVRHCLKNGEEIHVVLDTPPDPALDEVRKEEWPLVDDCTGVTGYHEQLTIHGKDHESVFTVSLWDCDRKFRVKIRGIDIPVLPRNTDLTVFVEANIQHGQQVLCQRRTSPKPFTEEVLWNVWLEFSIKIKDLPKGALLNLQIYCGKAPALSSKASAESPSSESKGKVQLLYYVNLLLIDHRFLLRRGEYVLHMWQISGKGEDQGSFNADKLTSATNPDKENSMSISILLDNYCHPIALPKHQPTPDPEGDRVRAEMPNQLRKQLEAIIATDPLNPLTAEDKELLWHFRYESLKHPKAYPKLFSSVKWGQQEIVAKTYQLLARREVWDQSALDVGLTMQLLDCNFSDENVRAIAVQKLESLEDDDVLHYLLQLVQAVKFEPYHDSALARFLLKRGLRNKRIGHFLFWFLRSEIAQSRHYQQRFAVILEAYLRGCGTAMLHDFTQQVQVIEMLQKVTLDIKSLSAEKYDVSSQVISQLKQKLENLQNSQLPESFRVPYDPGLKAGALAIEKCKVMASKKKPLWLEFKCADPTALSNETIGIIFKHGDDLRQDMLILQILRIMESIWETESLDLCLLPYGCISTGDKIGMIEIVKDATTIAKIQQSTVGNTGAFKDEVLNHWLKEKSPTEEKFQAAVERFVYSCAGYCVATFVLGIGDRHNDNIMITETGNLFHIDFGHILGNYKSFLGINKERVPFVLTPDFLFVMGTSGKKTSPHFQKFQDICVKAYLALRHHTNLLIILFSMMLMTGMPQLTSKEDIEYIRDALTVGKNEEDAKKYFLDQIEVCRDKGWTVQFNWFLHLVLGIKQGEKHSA

| Compound | IC50 [1] [nM] | IC50 [2] [nM] | IC50 [3] [nM] | IC50 [4] [nM] |
| --- | --- | --- | --- | --- |
| Cc1cc(N[C@@H](C)c2cc3cccc(Cl)c3c(=O)n2-c2ccccc2)nc(N)n1 | > 10000 | > 10000 | > 10000 | > 10000 |
| COc1ncc(-c2cccc3cc([C@H](C)Nc4nc(N)ncc4C(N)=O)n(-c4ccccc4)c(=O)c23)cn1 | < 100 | < 100 | > 10000 | > 10000 |
| COc1ncc(-c2cccc3nc([C@H](C)Nc4nc(N)ncc4C#N)n(-c4ccccc4)c(=O)c23)cn1 | < 100 | < 100 | > 10000 | > 10000 |
| C[C@H](Nc1nc(N)ncc1C#N)c1cc2cccc(-c3cncc(N(C)C)c3)c2c(=O)n1-c1ccccc1 | < 100 | < 100 | > 10000 | 100 to 1000 |
| C[C@H](Nc1cc(N)ncn1)c1cc2cccc(Cl)c2c(=O)n1-c1ccccc1 | 100 to 1000 | – | > 10000 | > 10000 |
| C[C@H](Nc1nc(N)ncc1S(C)(=O)=O)c1cc2cccc(Cl)c2c(=O)n1-c1ccccc1 | – | 100 to 1000 | > 10000 | > 10000 |
| COc1cc(-c2cccc3cc([C@H](C)Nc4nc(N)ncc4C(=O)N(C)OC)n(-c4ccccc4)c(=O)c23)ccn1 | 100 to 1000 | < 100 | > 10000 | > 10000 |
| COc1ncc(-c2cccc3cc([C@H](C)Nc4nc(N)ncc4C#N)n(-c4cccc(F)c4)c(=O)c23)cn1 | < 100 | < 100 | > 10000 | > 10000 |
| Cc1ncc(-c2cnc(N)nc2N[C@@H](C)c2cc3cccc(Cl)c3c(=O)n2-c2ccccc2)s1 | < 100 | < 100 | 100 to 1000 | > 10000 |
| C[C@H](Nc1nc(N)ncc1C(=O)N1CCC1)c1cc2cccc(-c3cnn(C)c3)c2c(=O)n1-c1ccccc1 | 100 to 1000 | < 100 | > 10000 | > 10000 |
| Cc1nc(N)nc(N[C@@H](C)c2cc3cccc(Cl)c3c(=O)n2-c2ccccc2)c1C#N | < 100 | < 100 | < 100 | < 100 |
| COc1cc(-c2cccc3cc([C@H](C)Nc4nc(N)ncc4C(=O)O)n(-c4ccccc4)c(=O)c23)ccn1 | > 10000 | > 10000 | > 10000 | > 10000 |
| COc1cc(-c2cccc3cc([C@H](C)Nc4nc(N)ncc4C#N)n(C4CC4)c(=O)c23)ccn1 | < 100 | < 100 | < 100 | 100 to 1000 |
| C[C@H](Nc1nc(N)ncc1C#N)c1cc2cccc(Oc3ccccc3)c2c(=O)n1-c1ccccc1 | < 100 | < 100 | > 10000 | > 10000 |
| C[C@H](Nc1nc(N)ncc1C#N)c1cc2cccc(Cl)c2c(=O)n1C | 100 to 1000 | 100 to 1000 | 100 to 1000 | > 10000 |
| COc1cc(-c2cccc3cc([C@H](C)Nc4nc(N)ncc4C(=O)NC4CC4)n(-c4ccccc4)c(=O)c23)ccn1 | < 100 | – | > 10000 | > 10000 |
| COc1cc(-c2cccc3cc([C@H](C)Nc4nc(N)ncc4-c4cc(O)cc(F)c4)n(-c4ccccc4)c(=O)c23)ccn1 | < 100 | 100 to 1000 | > 10000 | > 10000 |
| CCN(C)C(=O)c1cnc(N)nc1N[C@@H](C)c1cc2cccc(-c3ccnc(OC)c3)c2c(=O)n1-c1ccccc1 | – | 100 to 1000 | > 10000 | > 10000 |
| C[C@H](Nc1cc(Cl)nc(N)n1)c1cc2cccc(Cl)c2c(=O)n1-c1ccccc1 | 100 to 1000 | 100 to 1000 | > 10000 | > 10000 |
| C[C@H](Nc1nc(N)ncc1C(=O)N1CC(F)(F)C1)c1cc2cccc(Cl)c2c(=O)n1-c1ccccc1 | – | – | > 10000 | > 10000 |
| COc1cnc(-c2cccc3cc([C@H](C)Nc4nc(N)ncc4C#N)n(-c4ccccc4)c(=O)c23)nc1 | – | 100 to 1000 | > 10000 | > 10000 |
| C[C@H](Nc1nc(N)ncc1C#N)c1cc2cccc(-c3ccn(C)c(=O)c3)c2c(=O)n1-c1ccccc1 | – | – | > 10000 | > 10000 |
| C[C@H](Nc1nc(N)ncc1C(=O)N1CCC1)c1cc2cccc(Cl)c2c(=O)n1-c1ccccc1 | – | < 100 | > 10000 | > 10000 |
| COc1cc(-c2cccc3cc([C@H](C)Nc4nc(N)ncc4C(=O)N4CCC4)n(-c4ccccc4)c(=O)c23)ccn1 | – | < 100 | > 10000 | > 10000 |
| C[C@H](Nc1nc(N)ncc1-c1ccccc1)c1cc2cccc(Cl)c2c(=O)n1-c1ccccc1 | – | 100 to 1000 | > 10000 | > 10000 |
| COc1cc(-c2cccc3cc([C@H](C)Nc4nc(N)ncc4C(=O)N(C)CCO)n(-c4ccccc4)c(=O)c23)ccn1 | – | – | > 10000 | > 10000 |

The remaining lines, values ahead:

| IC50 [1] [nM] | IC50 [2] [nM] | IC50 [3] [nM] | IC50 [4] [nM] | Compound |
| --- | --- | --- | --- | --- |
| < 100 | < 100 | 100 to 1000 | < 100 | COc1cc(-c2cccc3cc([C@H](C)Nc4nc(N)nc(C)c4C#N)n(-c4ccccc4)c(=O)c23)ccn1 |
| 100 to 1000 | 100 to 1000 | > 10000 | > 10000 | C[C@H](Nc1nc(N)ncc1C#N)c1cc2cccc(Cl)c2c(=O)n1-c1ccc(F)cc1 |
| < 100 | < 100 | 100 to 1000 | 100 to 1000 | CNC(=O)c1cnc(N)nc1N[C@@H](C)c1cc2cccc(-c3ccnc(OC)c3)c2c(=O)n1-c1ccccc1 |
| > 10000 | – | > 10000 | > 10000 | CC(=O)Nc1cnc(N)nc1N[C@@H](C)c1cc2cccc(Cl)c2c(=O)n1-c1ccccc1 |
| 100 to 1000 | – | > 10000 | > 10000 | C[C@H](Nc1nc(Cl)ncc1[N+](=O)[O-])c1cc2cccc(Cl)c2c(=O)n1-c1ccccc1 |
| < 100 | < 100 | 100 to 1000 | 100 to 1000 | COc1cncc(-c2cccc3cc([C@H](C)Nc4nc(N)ncc4C#N)n(-c4ccccc4)c(=O)c23)c1 |
| > 10000 | > 10000 | > 10000 | > 10000 | C[C@H](Nc1nc(N)ncc1NS(C)(=O)=O)c1cc2cccc(Cl)c2c(=O)n1-c1ccccc1 |
| < 100 | < 100 | < 100 | 100 to 1000 | COc1nc(-c2cnc(N)nc2N[C@@H](C)c2cc3cccc(Cl)c3c(=O)n2-c2ccccc2)cs1 |
| < 100 | 100 to 1000 | > 10000 | > 10000 | C[C@H](Nc1nc(N)ncc1C#N)c1cc2cccc(-c3cccc(O)n3)c2c(=O)n1-c1ccccc1 |
| < 100 | < 100 | 100 to 1000 | > 10000 | C[C@H](Nc1nc(N)ncc1C#N)c1cc2cccc(Cl)c2c(=O)n1-c1cccnc1 |
| < 100 | 100 to 1000 | > 10000 | > 10000 | COc1cncc(-c2cccc3cc([C@H](C)Nc4nc(N)ncc4C#N)n(-c4ccccc4)c(=O)c23)n1 |
| < 100 | < 100 | < 100 | 100 to 1000 | C[C@H](Nc1ncnc(N)c1[N+](=O)[O-])c1cc2cccc(Cl)c2c(=O)n1-c1ccccc1 |
| 100 to 1000 | > 10000 | > 10000 | > 10000 | C[C@H](Nc1ncnc(Cl)c1[N+](=O)[O-])c1cc2cccc(Cl)c2c(=O)n1-c1ccccc1 |
| – | 100 to 1000 | > 10000 | > 10000 | COc1cccc2cc([C@H](C)Nc3nc(N)ncc3C#N)n(-c3ccccc3)c(=O)c12 |
